Assay results as given in patent publication US20120122870A1, “Treatment Of Ischemia-Reperfusion Injury” (MUSC FOUNDATION FOR RESEARCH DEVELOPMENT, priority 2009, published 2012).

Tests used:
recombinant human SK = target: T1, recombinant human SK (Homo sapiens, UniProt Q9NYA1); experiment: Recombinant human SK activity assay ([3H]sphingosine to [3H]S1P); type: biochemical; settings: Human SK incubated with 6 μg/mL of compound; percentage of SK activity inhibited
T1 construct: GST (glutathione-S-transferase) (N); made in house; host or cells: bacteria (pGEX bacterial expression vector)
T1 sequence (Q9NYA1 whole entry): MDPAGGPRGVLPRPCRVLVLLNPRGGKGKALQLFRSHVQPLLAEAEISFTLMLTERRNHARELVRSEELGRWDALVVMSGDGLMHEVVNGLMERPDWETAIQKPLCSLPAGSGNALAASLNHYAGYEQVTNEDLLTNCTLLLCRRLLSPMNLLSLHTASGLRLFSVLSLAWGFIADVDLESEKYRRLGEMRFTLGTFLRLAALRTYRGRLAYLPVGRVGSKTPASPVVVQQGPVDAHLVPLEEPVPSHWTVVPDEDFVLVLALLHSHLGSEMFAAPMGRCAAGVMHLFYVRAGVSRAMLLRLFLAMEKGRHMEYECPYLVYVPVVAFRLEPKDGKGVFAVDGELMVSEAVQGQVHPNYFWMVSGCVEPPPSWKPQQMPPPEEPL

[1] = tested on: endogenous SK activity in MDA-MB-231 cells; experiment: Cellular S1P production (endogenous SK activity) in MDA-MB-231 cells; type: cell-based; settings: for inhibition at 20 µg/mL / IC50: Homo sapiens; for inhibition at 20 µg/mL: MDA-MB-231, MDA-MB-231 cells incubated with 20 μg/mL of compound; for inhibition at 20 µg/mL / Cellular S1P (% inhibition): percentage of S1P production inhibited; for IC50: MDA-MB-231 cells, varying concentrations, concentration inhibiting S1P production by 50%; for Cellular S1P (% inhibition): MDA-MB-231 cells incubated with 20 μg/mL of compound
In short: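 MDA-MB-231 cells treated with 20 μg/mL compound and assayed for endogenous SK activity, reported as % inhibition of S1P production. For IC50, cells received varying compound concentrations and S1P produced was measured; IC50 is the concentration giving 50% inhibition.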

| SMILES | inhibition at 6 µg/mL (recombinant human SK) [%] | Recombinant SK (% inhibition) (recombinant human SK) [%] | IC50 [1] [µM] | inhibition at 20 µg/mL [1] [%] | Cellular S1P (% inhibition) [1] [%] |
| --- | --- | --- | --- | --- | --- |
| O=C(NCCc1ccc(O)c(O)c1)C12CC3CC(CC(C3)C1)C2 [A43, Adamantane-1-carboxylic acid [2-(3,4-dihydroxy-phenyl)-ethyl]-amide] | 0 | – | – | 0 | – |
| CN1CCC(NC(=O)C23CC4CC(CC(C4)C2)C3)CC1 [A50, Adamantane-1-carboxylic acid (1-methyl-piperidin-4-yl)-amide] | 0 | – | – | 44 | – |
| CN1CCC(NC(=O)C23CC4CC(C2)CC(c2ccc(Cl)cc2)(C4)C3)CC1 [A51, 3-(4-Chloro-phenyl)-adamantane-1-carboxylic acid (1-methyl-piperidin-4-yl)-amide] | 84 | – | 25 | 88 | – |
| CN1CCN(NC(=O)C23CC4CC(C2)CC(c2ccc(Cl)cc2)(C4)C3)CC1 [A52, 3-(4-Chloro-phenyl)-adamantane-1-carboxylic acid (4-methyl-piperazin-1-yl)-amide] | 54 | – | – | 61 | – |
| CN1CCCC1CCNC(=O)C12CC3CC(CC(C3)C1)C2 (stereo not drawn) [A56, Adamantane-1-carboxylic acid [2-(1-methyl-pyrrolidin-2-yl)-ethyl]-amide] | 33 | – | – | 40 | – |
| CN1CCCC1CCNC(=O)C12CC3CC(C1)CC(c1ccc(Cl)cc1)(C3)C2 (stereo not drawn) [A57, 3-(4-Chloro-phenyl)-adamantane-1-carboxylic acid [2-(1-methyl-pyrrolidin-2-yl)-ethyl]-amide] | 30 | – | 60 | 83 | – |
| O=C(NCCN1CCOCC1)C12CC3CC(C1)CC(c1ccc(Cl)cc1)(C3)C2 [A58, 3-(4-Chloro-phenyl)-adamantane-1-carboxylic acid (2-morpholin-4-yl-ethyl)-amide] | 67 | – | – | 55 | – |
| O=C(NCc1ccncc1)C12CC3CC(CC(C3)C1)C2 [A60, Adamantane-1-carboxylic acid (pyridin-4-ylmethyl)-amide] | 0 | – | – | 23 | – |
| O=C(NCc1ccncc1)C12CC3CC(C1)CC(c1ccc(Cl)cc1)(C3)C2 [A62, 3-(4-Chloro-phenyl)-adamantane-1-carboxylic acid (pyridin-4-ylmethyl)-amide] | 13 | – | 26 | 92 | – |
| O=C(NCc1ccncc1)C12CC3CC(CC(C3)C1)C2 [A63, Adamantane-1-carboxylic acid (pyridin-4-ylmethyl)-amide] | – | 0 | – | – | 39 |
| O=C(Nc1nc(-c2ccc(Cl)cc2)cs1)C12CC3CC(CC(C3)C1)C2 [A69, Adamantane-1-carboxylic acid [4-(4-chloro-phenyl)-thiazol-2-yl]-amide] | 40 | – | – | 13 | – |
| CN1CCN(NCC23CC4CC(C2)CC(c2ccc(Cl)cc2)(C4)C3)CC1 [A83, [3-(4-Chloro-phenyl)-adamantan-1-ylmethyl]-(4-methyl-piperazin-1-yl)-amine] | 60 | – | 16 | 88 | – |
| Clc1ccc(C23CC4CC(CC(CNCCN5CCOCC5)(C4)C2)C3)cc1 [A87, [3-(4-Chloro-phenyl)-adamantan-1-ylmethyl]-(2-morpholin-4-yl-ethyl)-amine] | 75 | – | 64 | 55 | – |
| CCn1c2ccccc2c2cc(NCC34CC5CC(C3)CC(c3ccc(Cl)cc3)(C5)C4)ccc21 [A89, [3-(4-Chloro-phenyl)-admantan-1-ylmethyl]-(9-ethyl-9H-carbazol-3-yl)-amine] | – | 37 | – | – | 1 |
| Clc1ccc(-c2cnc(NCC34CC5CC(C3)CC(c3ccc(Cl)cc3)(C5)C4)s2)cc1 [A90, [3-(4-Chloro-phenyl)-adamantan-1-ylmethyl]-[5-(4-chloro-phenyl)-thiazol-2-yl]-amine] | 26 | – | – | 16 | – |

Now from value to compound, other results behind:

| inhibition at 6 µg/mL (recombinant human SK) [%] | Recombinant SK (% inhibition) (recombinant human SK) [%] | IC50 [1] [µM] | SMILES | inhibition at 20 µg/mL [1] [%] | Cellular S1P (% inhibition) [1] [%] |
| --- | --- | --- | --- | --- | --- |
| 40 | – | – | O=C(NCCc1ccc(F)cc1)C12CC3CC(C1)CC(c1ccc(Cl)cc1)(C3)C2 [A38, 3-(4-Chloro-phenyl)-adamantane-1-carboxylic acid [2-(4-fluoro-phenyl)-ethyl]-amide] | 34 | – |
| 19 | – | – | O=C(NCCc1ccc(Br)cc1)C12CC3CC(C1)CC(c1ccc(Cl)cc1)(C3)C2 [A39, 3-(4-Chloro-phenyl)-adamantane-1-carboxylic acid [2-(4-bromo-phenyl)-ethyl]-amide] | 26 | – |
| 100 | – | – | O=C(NCCc1ccc(O)cc1)C12CC3CC(C1)CC(c1ccc(Cl)cc1)(C3)C2 [A40, 3-(4-Chloro-phenyl)-adamantane-1-carboxylic acid [2-(4-hydroxy-phenyl)-ethyl]-amide] | 52 | – |
| – | 67 | – | O=C(NCc1ccc(Oc2ccccc2)cc1)C12CC3CC(C1)CC(c1ccc(Cl)cc1)(C3)C2 [A41, 3-(4-Chloro-phenyl)-adamantane-1-carboxylic acid 4-phenoxy-benzylamide] | 23 | – |
| 36 | – | – | O=C(NCCCc1ccccc1)C12CC3CC(C1)CC(c1ccc(Cl)cc1)(C3)C2 [A48, 3-(4-Chloro-phenyl)-adamantane-1-carboxylic acid (3-phenyl-propyl)-amide] | 14 | – |
| 58 | – | – | O=C(NCc1ccncc1)C12CC3CC(C1)CC(c1ccc(F)cc1)(C3)C2 [A61, 3-(4-Fluoro-phenyl)-adamantane-1-carboxylic acid (pyridin-4-ylmethyl)-amide] | 24 | – |
| 41 | – | 63 | O=C(NCCc1ccncc1)C12CC3CC(C1)CC(c1ccc(Cl)cc1)(C3)C2 [A64, 3-(4-Chloro-phenyl)-adamantane-1-carboxylic acid (2-pyridin-4-yl-ethyl)-amide] | 80 | – |
| 92 | – | – | Cc1cc2cc(NC(=O)C34CC5CC(C3)CC(c3ccc(Cl)cc3)(C5)C4)ccc2[nH]1 [A66, 3-(4-Chloro-phenyl)-adamantane-1-carboxylic acid (2-methyl-1H-indol-5-yl)-amide] | 8 | – |
| 17 | – | – | CCn1c2ccccc2c2cc(NC(=O)C34CC5CC(C3)CC(c3ccc(Cl)cc3)(C5)C4)ccc21 [A68, 3-(4-Chloro-phenyl)-adamantane-1-carboxylic acid (9-ethyl-9H-carbazol-3-yl)-amide] | 0 | – |
| 33 | – | – | O=C(Nc1nc(-c2ccc(Cl)cc2)cs1)C12CC3CC(C1)CC(c1ccc(Cl)cc1)(C3)C2 [A70, 3-(4-Chloro-phenyl)-adamantane-1-carboxylic acid [4-(4-chloro-phenyl)-thiazol-2-yl]-amide] | 4 | – |
| 27 | – | – | O=C(Nc1nc2ccccc2s1)C12CC3CC(C1)CC(c1ccc(Cl)cc1)(C3)C2 [A71, 3-(4-Chloro-phenyl)-adamantane-1-carboxylic acid benzothiazol-2-ylamide] | 0 | – |
| 14 | – | – | O=C(Nc1nc2cc(Cl)ccc2o1)C12CC3CC(C1)CC(c1ccc(Cl)cc1)(C3)C2 [A72, 3-(4-Chloro-phenyl)-adamantane-1-carboxylic acid (5-chloro-benzooxazol-2-yl)-amide] | 1 | – |
